Measurements taken from ChEMBL document CHEMBL1126397, “Synthesis of acid stable 5-o-fluoromethyl phosphonates of nucleosides. Evaluation as inhibitors of reverse transcriptase” (Bioorg Med Chem Lett, 1992).
Converted amounts (≈) assume the structure as drawn.

What was measured:
[1] = target: T1, Human immunodeficiency virus type 1 reverse transcriptase (Human immunodeficiency virus 1, UniProt Q72547); experiment: The compound was evaluated as inhibitor of recombinant HIV-l reverse transcriptase
[2] = tested on: Avian myeloblastosis virus; experiment: The compound was evaluated as inhibitor of avian myeloblastosis virus (AMV) reverse transcriptase; assay type: functional, organism-based
[3] = target: T2, Avian myoblastosis virus polyprotein II (Avian myeloblastosis virus, UniProt Q86831); experiment: Inhibitor of avian myeloblastosis virus AMV reverse transcriptase
T2 sequence (Q86831 whole entry): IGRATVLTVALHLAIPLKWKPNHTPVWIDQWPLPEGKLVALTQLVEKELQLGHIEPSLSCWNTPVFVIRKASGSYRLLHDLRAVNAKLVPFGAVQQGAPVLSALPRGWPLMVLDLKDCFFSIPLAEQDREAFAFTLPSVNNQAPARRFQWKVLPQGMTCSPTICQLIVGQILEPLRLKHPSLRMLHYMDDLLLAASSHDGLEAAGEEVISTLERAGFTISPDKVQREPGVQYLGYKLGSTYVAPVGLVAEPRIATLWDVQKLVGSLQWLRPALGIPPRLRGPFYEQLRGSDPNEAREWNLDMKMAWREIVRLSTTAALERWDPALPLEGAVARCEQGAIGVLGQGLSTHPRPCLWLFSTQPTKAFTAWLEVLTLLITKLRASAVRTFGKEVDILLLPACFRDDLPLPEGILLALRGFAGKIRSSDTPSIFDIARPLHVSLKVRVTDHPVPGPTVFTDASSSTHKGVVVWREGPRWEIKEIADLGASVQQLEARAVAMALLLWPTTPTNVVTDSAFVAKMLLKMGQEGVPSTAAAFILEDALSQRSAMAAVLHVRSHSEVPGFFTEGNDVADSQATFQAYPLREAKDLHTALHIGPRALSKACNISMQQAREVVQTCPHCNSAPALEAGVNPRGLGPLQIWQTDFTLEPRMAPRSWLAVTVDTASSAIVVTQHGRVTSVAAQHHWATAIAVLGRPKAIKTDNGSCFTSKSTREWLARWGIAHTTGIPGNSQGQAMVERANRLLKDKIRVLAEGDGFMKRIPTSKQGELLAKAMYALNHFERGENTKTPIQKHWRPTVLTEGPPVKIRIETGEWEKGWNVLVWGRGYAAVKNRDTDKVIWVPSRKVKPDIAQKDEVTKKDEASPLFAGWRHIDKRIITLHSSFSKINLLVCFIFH

[4] = tested on: Avian myeloblastosis virus; experiment: Compound was evaluated as inhibitor of avian myeloblastosis virus (AMV) reverse transcriptase; assay type: functional, organism-based
[5] = target: T1, Human immunodeficiency virus type 1 reverse transcriptase; experiment: Compound was evaluated as inhibitor of recombinant HIV-l reverse transcriptase

Cc1cn([C@H]2C[C@H](N=[N+]=[N-])[C@@H](CO[P@](=O)(O)O[P@](=O)(O)OP(=O)(O)O)O2)c(=O)[nH]c1=O [ZIDOVUDINE TRIPHOSPHATE]
IC50 [1]: 0.237 µM | IC50 [2]: 0.06 µg/mL

O=c1[nH]c(=O)n([C@H]2C[C@H](O)[C@@H](COP(=O)(O)C(F)(F)F)O2)cc1F
IC50 [1]: 47.6 µM

Cc1cn(C2CC(N=[N+]=[N-])C(COP(=O)(O)C(F)F)O2)c(=O)[nH]c1=O (stereo not drawn)
IC50 [1]: 55.1 µM

Cc1cn(C2CC(N=[N+]=[N-])C(COP(=O)(O)CF)O2)c(=O)[nH]c1=O (stereo not drawn)
IC50 [1]: 110 µM

Nc1nc(O)c2ncn(C3O[C@H](COP(=O)(O)C(F)F)[C@@H](O)[C@H]3O)c2n1 (stereo partly drawn)
IC50 [2]: 150 µg/mL (≈ 378 µM)

Cc1cn([C@H]2C[C@H](N=[N+]=[N-])[C@@H](COP(=O)(O)O)O2)c(=O)[nH]c1=O [AZIDOTHYMIDINE MONOPHOSPHATE]
IC50 [1]: > 2880 µM | IC50 [2]: 900 µg/mL

Nc1ncnc2c1ncn2C1O[C@H](COP(=O)(O)C(F)F)[C@@H](O)[C@H]1O (stereo partly drawn)
IC50 [3]: > 1050 µM

Cc1cn(C2CC(N=[N+]=[N-])C(COP(=O)(O)C(F)(F)F)O2)c(=O)[nH]c1=O (stereo not drawn)
IC50 [1]: 30.1 µM

Cc1cn([C@H]2C[C@H](N=[N+]=[N-])[C@@H](CO)O2)c(=O)[nH]c1=O [ZIDOVUDINE]
IC50 [4]: 600 µg/mL (≈ 2250 µM) | IC50 [5]: 2990 µM

O=c1ccn(C2O[C@H](COP(=O)(O)C(F)F)[C@@H](O)[C@H]2O)c(=O)[nH]1 (stereo partly drawn)
IC50 [3]: > 1120 µM
